From EPA's ToxRefDB 2

Experiments:
mouse [1] = conditions: Carcinogenicity, cd1, Oral, Feed, dose end: 18 month, group: systemic
dog [2] = conditions: Chronic toxicity; beagle; Oral; Feed; dose end: 53 week; group: systemic; systemic / pathology microscopic / stomach / [other] + systemic / pathology microscopic / stomach / inflammation
rat [3] = conditions: Combined chronic toxicity/carcinogenicity, wistar, Oral, Feed, dose end: 24 month, group: systemic
dog [4] = conditions: Subchronic oral toxicity in nonrodent, beagle, Feed, dose end: 13 week, group: systemic, systemic / clinical chemistry / alanine aminotransferase (alt/sgpt) / alanine aminotransferase (alt/sgpt) + systemic / clinical chemistry / …
rat [5] = conditions: Prenatal developmental toxicity study, sprague dawley, Oral, Gavage/Intubation, dose end: 19 GD
rat [6] = conditions: Subchronic oral toxicity in rodents, other, Feed, dose end: 13 week, group: systemic
rat [7] = conditions: Combined chronic toxicity/carcinogenicity; sprague dawley; Oral; Feed; dose end: 24 month; group: systemic; systemic / in life observation / body weight / body weight gain
dog [8] = conditions: Subchronic oral toxicity in nonrodent, beagle, Feed, dose end: 26 week, group: systemic
mouse [9] = conditions: Carcinogenicity, cd1, Oral, Feed, dose end: 24 month, group: systemic
[10] = systemic / clinical chemistry / chloride / chloride + systemic / hematology / erythrocyte (rbc) count differential / erythrocyte (rbc) + …
[11] = systemic / clinical chemistry / urea nitrogen / urea + systemic / clinical chemistry / phosphorus / phosphorus
[12] = group: developmental, developmental / developmental malformation / bone / [other] + developmental / developmental malformation / bone / unossified
[13] = group: maternal, systemic / in life observation / body weight / body weight gain + systemic / in life observation / clinical signs / nasal discharge + …
[14] = systemic / organ weight / liver / absolute + systemic / organ weight / liver / relative to body weight
[15] = systemic / in life observation / body weight / body weight + systemic / in life observation / body weight / body weight gain
[16] = systemic / in life observation / body weight / body weight + systemic / in life observation / body weight / body weight gain + systemic / …

Q: With COC(=O)c1ccc(CNS(C)(=O)=O)cc1S(=O)(=O)NC(=O)Nc1nc(OC)cc(OC)n1 [Mesosulfuron-methyl] as the molecule, how does the LOAEL (mouse [1]; [10]) read?
A: Its LOAEL is over 1070 mg/kg/day.

Q: What about the NEL (mouse [1]; [10]) of the same molecule?
A: Its NEL is 10.6 mg/kg/day.

Q: And the NOAEL (mouse [1]; [10])?
A: The NOAEL was at least 1070 mg/kg/day.

Q: What about the LEL (mouse [1]; systemic / clinical chemistry / chloride / chloride + systemic / hematology / leukocyte (wbc) count differential / leukocyte (wbc)) of the same molecule?
A: The LEL was 103 mg/kg/day.

Q: And the LEL (dog [2])?
A: The LEL was 574 mg/kg/day.

Q: What about the LOAEL (dog [2]) of the same molecule?
A: Its LOAEL is 574 mg/kg/day.

Q: What about the NEL (dog [2]) of the same molecule?
A: The NEL was 155 mg/kg/day.

Q: And the NOAEL (dog [2])?
A: The NOAEL was 155 mg/kg/day.

Q: What about the LEL (rat [3]; systemic / clinical chemistry / urea nitrogen / urea) of the same molecule?
A: The LEL was 73.8 mg/kg/day.

Q: And the LOAEL (rat [3]; [11])?
A: Its LOAEL is over 764 mg/kg/day.

Q: And the NEL (rat [3]; [11])?
A: The NEL was 7.46 mg/kg/day.

Q: And the NOAEL (rat [3]; [11])?
A: Its NOAEL is at least 764 mg/kg/day.

Q: What about the LEL (dog [4]) of the same molecule?
A: Its LEL is 648 mg/kg/day.

Q: And the LOAEL (dog [4])?
A: Its LOAEL is over 648 mg/kg/day.

Q: And the NEL (dog [4])?
A: Its NEL is 348 mg/kg/day.

Q: What about the NOAEL (dog [4]) of the same molecule?
A: The NOAEL was at least 648 mg/kg/day.

Q: Which LEL (rat [5]; [12]) does the source give for Nc1nc(N)nc(NC2CC2)n1 [Cyromazine] here?
A: The LEL was 600 mg/kg/day.

Q: What about the LOAEL (rat [5]; [12]) of the same molecule?
A: The LOAEL was 600 mg/kg/day.

Q: And the NEL (rat [5]; [12])?
A: Its NEL is 300 mg/kg/day.

Q: What about the NOAEL (rat [5]; [12]) of the same molecule?
A: The NOAEL was 300 mg/kg/day.

Q: What about the LOAEL (rat [5]; group: maternal, systemic / in life observation / body weight / body weight gain + systemic / in life observation / clinical signs / nasal discharge) of the same molecule?
A: The LOAEL was 300 mg/kg/day.

Q: What about the LEL (rat [5]; [13]) of the same molecule?
A: The LEL was 300 mg/kg/day.

Q: And the NEL (rat [5]; [13])?
A: Its NEL is 100 mg/kg/day.

Q: What about the NOAEL (rat [5]; [13]) of the same molecule?
A: The NOAEL was 100 mg/kg/day.

Q: What about the LEL (rat [6]; [14]) of the same molecule?
A: Its LEL is 3 mg/kg/day.

Q: And the LOAEL (rat [6]; [14])?
A: The LOAEL was 30 mg/kg/day.

Q: What about the NEL (rat [6]; [14]) of the same molecule?
A: The NEL was under 3 mg/kg/day.

Q: What about the NOAEL (rat [6]; systemic / organ weight / liver / absolute + systemic / organ weight / liver / relative to body weight + systemic / clinical chemistry / …) of the same molecule?
A: The NOAEL was 3 mg/kg/day.

Q: And the LEL (rat [7])?
A: Its LEL is 15 mg/kg/day.

Q: What about the LOAEL (rat [7]) of the same molecule?
A: Its LOAEL is 15 mg/kg/day.

Q: What about the NEL (rat [7]) of the same molecule?
A: Its NEL is 1.5 mg/kg/day.

Q: What about the NOAEL (rat [7]) of the same molecule?
A: The NOAEL was 1.5 mg/kg/day.

Q: And the LOAEL (dog [8]; systemic / in life observation / body weight / body weight + systemic / hematology / hematocrit (hct) / hematocrit (hct) + systemic / …)?
A: Its LOAEL is 75 mg/kg/day.

Q: What about the LEL (dog [8]; [15]) of the same molecule?
A: Its LEL is 0.75 mg/kg/day.

Q: And the NEL (dog [8]; [15])?
A: Its NEL is under 0.75 mg/kg/day.

Q: What about the NOAEL (dog [8]; [16]) of the same molecule?
A: Its NOAEL is 7.5 mg/kg/day.

Q: What about the LOAEL (mouse [9]; systemic / in life observation / body weight / body weight) of the same molecule?
A: The LOAEL was 150 mg/kg/day.

Q: And the LEL (mouse [9]; [15])?
A: Its LEL is 150 mg/kg/day.

Q: What about the NEL (mouse [9]; [16]) of the same molecule?
A: The NEL was 7.5 mg/kg/day.

Q: What about the NOAEL (mouse [9]; [16]) of the same molecule?
A: Its NOAEL is 7.5 mg/kg/day.
